Measured values taken from paper PMC9688344, “[^225Ac]Ac-SibuDAB for Targeted Alpha Therapy of Prostate Cancer: Preclinical Evaluation and Comparison with [^225Ac]Ac-PSMA-617” (Cancers, 2022).

Legend:
[1] = system: PSMA-positive PC-3 PIP cells; assay: Cell uptake and internalization; format: cell-based; settings: 4 h incubation; % of total added activity
patients = system: patients; set-up: method as in PMID 33293081; settings: clinical study; cited from earlier work
[2] = Radioligand integrity by thin-layer chromatography; format: physicochemical; settings: over a period of 48 h
Method: The PSMA ligands used in this study were synthesized using solid-phase chemistry methods as previously reported. The labeling of the PSMA ligands with actinium-225 was performed at ITM Medical Isotopes GmbH, Munich, Germany (Supplementary Material: Section S1). The radioligands (~50 kBq/nmol; ~0.5 MBq/mL) were shipped to the Paul Scherrer Institute (PSI) overnight followed by assessing their integrity using thin-layer chromatography. […] Depending on the experiment, the molar activity of the radioligands was adjusted by adding unlabeled ligand and the final formulation was prepared by adding vehicle (saline with 0.05% bovine serum albumin (BSA)) to obtain the desired activity concentration. Radiolabeling of SibuDAB with lutetium-177 (5–10 MBq/nmol) was performed as previously reported.

[3] = system: PC3-PIP/flu tumor-bearing mice; assay: Biodistribution studies; format: in vivo, BALB/c nude mice

## O=C([O-])CN1CCN(CC(=O)[O-])CCN(CC(=O)NCC2CCC(C(=O)NC(Cc3ccc4ccccc4c3)C(=O)NCCCCC(NC(=O)NC(CCC(=O)O)C(=O)O)C(=O)O)CC2)CCN(CC(=O)[O-])CC1.[225Ac+3] (centres unmarked) [[^225Ac]Ac-PSMA-617]
[1]
  Cell uptake: 63 ± 5%
  Internalization (internalized fraction): 19 ± 3%
patients
  patients with hematotoxicity up to Grade 3/4: about 30%
[2]
  intact radioligand: > 99%
[3]; 1 h p.i.
  Blood, accumulated activity: 0.62 ± 0.12 % IA/g
  Bone, accumulated activity: 0.46 ± 0.13 % IA/g
  Heart, accumulated activity: 0.35 ± 0.09 % IA/g
  Intestines, accumulated activity: 0.29 ± 0.12 % IA/g
  Kidneys, accumulated activity: 12 ± 3 % IA/g
  Liver, accumulated activity: 0.46 ± 0.10 % IA/g
  Lung, accumulated activity: 0.76 ± 0.23 % IA/g
  Muscle, accumulated activity: 0.18 ± 0.06 % IA/g
  PC-3 PIP tumor, accumulated activity: 46 ± 13 % IA/g
  PC-3 flu tumor, accumulated activity: 0.30 ± 0.06 % IA/g
  Salivary glands, accumulated activity: 0.30 ± 0.06 % IA/g
  Spleen, accumulated activity: 0.68 ± 0.09 % IA/g
  Stomach, accumulated activity: 0.37 ± 0.14 % IA/g
  Tumor-to-blood ratio: 73 ± 7
  Tumor-to-kidney ratio: 3.7 ± 0.3
  Tumor-to-liver ratio: 99 ± 8
[3]; 4 h p.i.
  Blood, accumulated activity: ≤ 0.10 % IA/g
  Bone, accumulated activity: 0.14 ± 0.04 % IA/g
  Heart, accumulated activity: ≤ 0.10 % IA/g
  Intestines, accumulated activity: ≤ 0.10 % IA/g
  Kidneys, accumulated activity: 3.5 ± 0.6 % IA/g
  Liver, accumulated activity: 0.31 ± 0.04 % IA/g
  Lung, accumulated activity: ≤ 0.10 % IA/g
  Muscle, accumulated activity: ≤ 0.10 % IA/g
  PC-3 PIP tumor, accumulated activity: 43 ± 10 % IA/g
  PC-3 flu tumor, accumulated activity: 0.11 ± 0.02 % IA/g
  Salivary glands, accumulated activity: ≤ 0.10 % IA/g
  Spleen, accumulated activity: 0.12 ± 0.05 % IA/g
  Stomach, accumulated activity: ≤ 0.10 % IA/g
  Tumor-to-blood ratio: 2593 ± 825
  Tumor-to-kidney ratio: 13 ± 4
  Tumor-to-liver ratio: 142 ± 23
[3]; 24 h p.i.
  Blood, accumulated activity: ≤ 0.10 % IA/g
  Bone, accumulated activity: 0.11 ± 0.01 % IA/g
  Heart, accumulated activity: ≤ 0.10 % IA/g
  Intestines, accumulated activity: ≤ 0.10 % IA/g
  Kidneys, accumulated activity: 1.2 ± 0.2 % IA/g
  Liver, accumulated activity: 0.39 ± 0.06 % IA/g
  Lung, accumulated activity: ≤ 0.10 % IA/g
  Muscle, accumulated activity: ≤ 0.10 % IA/g
  PC-3 PIP tumor, accumulated activity: 37 ± 9 % IA/g
  PC-3 flu tumor, accumulated activity: 0.11 ± 0.08 % IA/g
  Salivary glands, accumulated activity: ≤ 0.10 % IA/g
  Spleen, accumulated activity: 0.13 ± 0.04 % IA/g
  Stomach, accumulated activity: ≤ 0.10 % IA/g
  Tumor-to-blood ratio: 4991 ± 3208
  Tumor-to-kidney ratio: 33 ± 9
  Tumor-to-liver ratio: 97 ± 20
[3]; 48 h p.i.
  Blood, accumulated activity: ≤ 0.10 % IA/g
  Bone, accumulated activity: 0.12 ± 0.04 % IA/g
  Heart, accumulated activity: ≤ 0.10 % IA/g
  Intestines, accumulated activity: ≤ 0.10 % IA/g
  Kidneys, accumulated activity: 0.79 ± 0.13 % IA/g
  Liver, accumulated activity: 0.44 ± 0.16 % IA/g
  Lung, accumulated activity: ≤ 0.10 % IA/g
  Muscle, accumulated activity: ≤ 0.10 % IA/g
  PC-3 PIP tumor, accumulated activity: 31 ± 3 % IA/g
  PC-3 flu tumor, accumulated activity: 0.26 ± 0.4 % IA/g
  Salivary glands, accumulated activity: ≤ 0.10 % IA/g
  Spleen, accumulated activity: 0.13 ± 0.02 % IA/g
  Stomach, accumulated activity: ≤ 0.10 % IA/g
  Tumor-to-blood ratio: 1716 ± 860
  Tumor-to-kidney ratio: 37 ± 6
  Tumor-to-liver ratio: 68 ± 15
